Values of other authors, collected in US6797282B2, “Combination progestin oral contraceptive regimen” (Ortho-McNeil Pharmaceutical, Inc., priority 1997, dated 2004).

System: endometrium
Conditions: primates; Wilborn et al 1984

## C#C[C@]1(OC(C)=O)CC[C@H]2[C@@H]3CCC4=CC(=NO)CC[C@@H]4[C@H]3CC[C@@]21CC (mixture of isomers) [Norgestimate]
  effect on endometrium in comparison to other progestins: endometrial sparing effect
